According to ChEMBL document CHEMBL1201862, “PubChem BioAssay data set” (2004):
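These data come from cells grown in 96-well plates and exposed to compound for 48 hours at five concentrations. GI50 = concentration required for 50% inhibition of growth.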 The source made the active and inactive calls. No stated cut-off is given here; in the data, active = GI50 up to about 1.1 µM and inactive = higher.

How the values were obtained:
Test in all cases: DTP human tumour cell line panel, 48 h
HT-29 = tested on: HT-29
NCI-H460 = tested on: NCI-H460
LOX IMVI = tested on: LOX IMVI
COLO 205 = tested on: COLO 205
U-251 = tested on: U-251
NCI/ADR-RES = tested on: NCI/ADR-RES
HOP-62 = tested on: HOP-62
SR = tested on: SR
K562 = tested on: K562
SN12C = tested on: SN12C
SF-295 = tested on: SF-295
786-0 = tested on: 786-0
HL-60 = tested on: HL-60
RPMI-8226 = tested on: RPMI-8226
SNB-19 = tested on: SNB-19
CCRF-CEM = tested on: CCRF-CEM
HCT-15 = tested on: HCT-15
DU-145 = tested on: DU-145
MCF7 = tested on: MCF7
PC-3 = tested on: PC-3

Structure (SMILES) | GI50 (HT-29) | GI50 (NCI-H460) | GI50 (LOX IMVI) | GI50 (COLO 205) | GI50 (U-251) | GI50 (NCI/ADR-RES) | GI50 (HOP-62) | GI50 (SR) | GI50 (K562) | GI50 (SN12C) | GI50 (SF-295) | GI50 (786-0) | GI50 (HL-60) | GI50 (RPMI-8226) | GI50 (SNB-19) | GI50 (CCRF-CEM) | GI50 (HCT-15) [µM] | GI50 (DU-145) | GI50 (MCF7) | GI50 (PC-3)
CCCCCCCCCC[C@@H](O)[C@H]1CC[C@H]([C@H]2CC[C@H]([C@H](O)CCCCCCCCCC[C@@H]3CC(CC(C)=O)C(=O)O3)O2)O1 (stereo not given in full) | 4.41 µM (inactive) | 0.254 µM (active) | 1.12 µM (inactive) | 13 µM (inactive) | > 50 µM (inactive) | 4.69 µM (inactive) | 46.5 µM (inactive) | 0.562 µM (active) | 0.374 µM (active) | 33.4 µM (inactive) | 1.94 µM (inactive) | 23.2 µM (inactive) | 5.61 µM (inactive) | 0.231 µM (active) | > 47.3 µM (inactive) | 9.23 µM (inactive) | 28.3 | > 50 µM (inactive) | 13.8 µM (inactive) | 21.7 µM (inactive)
COc1ccc(/C=C/C=C2C(=O)NC(=S)NC2=O)cc1 | 5.77 µM (inactive) | 12.5 µM (inactive) | 1.89 µM (inactive) | 3.83 µM (inactive) | 2.16 µM (inactive) | 3.3 µM (inactive) | 19.4 µM (inactive) | 1.35 µM (inactive) | 2.21 µM (inactive) | 7.35 µM (inactive) | 16.2 µM (inactive) | 2.35 µM (inactive) | 0.805 µM (active) | 4.91 µM (inactive) | 7.59 µM (inactive) | 1.59 µM (inactive) | 3.64 | 6.03 µM (inactive) | 7.74 µM (inactive) | 12.6 µM (inactive)
O=C1c2ccccc2C(=O)c2c(NC(=O)C(Cl)CCl)cccc21 (stereo not given) | 3.05 µM (inactive) | 6.32 µM (inactive) | 2.44 µM (inactive) | 6.47 µM (inactive) | 3.33 µM (inactive) | 23.1 µM (inactive) | 10.5 µM (inactive) | < 0.01 µM (active) | 0.197 µM (active) | 7.67 µM (inactive) | 26.7 µM (inactive) | 2.87 µM (inactive) | 0.361 µM (active) | 0.628 µM (active) | 15.2 µM (inactive) | 0.163 µM (active) | 6.65 | 7.38 µM (inactive) | 0.785 µM (active) | 9.33 µM (inactive)
Cn1c2ccccc2c(=NNc2ccc(S(N)(=O)=O)cc2)c2ccccc21 | 17.6 µM (inactive) | 9.18 µM (inactive) | 9.29 µM (inactive) | 18.7 µM (inactive) | 19 µM (inactive) | 14.1 µM (inactive) | 15.3 µM (inactive) | 8.81 µM (inactive) | 2.49 µM (inactive) | 18.4 µM (inactive) | 13.6 µM (inactive) | 21 µM (inactive) | 2.7 µM (inactive) | 9.35 µM (inactive) | 27.6 µM (inactive) | 4.58 µM (inactive) | 16.2 | 21.6 µM (inactive) | 13.6 µM (inactive) | 9.75 µM (inactive)
Nc1[nH]c(Nc2ccc(Cl)c(Cl)c2)nc2ncnc1-2 | 14.7 µM (inactive) | 15.5 µM (inactive) | 14.8 µM (inactive) | 20.7 µM (inactive) | 15.2 µM (inactive) | 15.9 µM (inactive) | 12.9 µM (inactive) | 11 µM (inactive) | 16.1 µM (inactive) | 23.6 µM (inactive) | 17.5 µM (inactive) | 15.7 µM (inactive) | 6.67 µM (inactive) | 14.5 µM (inactive) | 14.1 µM (inactive) | 16.1 µM (inactive) | 15.3 | 7.41 µM (inactive) | 14.6 µM (inactive) | 12 µM (inactive)
NNC(=O)Cn1ccnn1 | > 100 µM (inactive) | > 100 µM (inactive) | > 100 µM (inactive) | > 100 µM (inactive) | > 100 µM (inactive) | > 100 µM (inactive) | > 100 µM (inactive) | > 100 µM (inactive) | > 100 µM (inactive) | > 100 µM (inactive) | > 100 µM (inactive) | > 100 µM (inactive) | > 100 µM (inactive) | > 100 µM (inactive) | > 100 µM (inactive) | > 100 µM (inactive) | > 100 | > 100 µM (inactive) | > 100 µM (inactive) | > 100 µM (inactive)
NNC(=O)c1ccc(-n2nnc(C(=O)NN)c2C(=O)NN)cc1 | > 100 µM (inactive) | > 100 µM (inactive) | > 100 µM (inactive) | > 100 µM (inactive) | > 100 µM (inactive) | > 100 µM (inactive) | > 100 µM (inactive) | > 100 µM (inactive) | > 100 µM (inactive) | > 100 µM (inactive) | > 100 µM (inactive) | > 100 µM (inactive) | > 100 µM (inactive) | > 100 µM (inactive) | > 100 µM (inactive) | > 100 µM (inactive) | > 100 | > 100 µM (inactive) | > 100 µM (inactive) | > 100 µM (inactive)
Cc1cc(/N=C/c2ccc(C#N)cc2)n(-c2ccccc2)n1 | 47.8 µM (inactive) | > 100 µM (inactive) | 63.4 µM (inactive) | 31.3 µM (inactive) | 71.6 µM (inactive) | 65.8 µM (inactive) | 68.9 µM (inactive) | 35.5 µM (inactive) | 26.5 µM (inactive) | 82.2 µM (inactive) | 81.7 µM (inactive) | 80.5 µM (inactive) | 20.1 µM (inactive) | 26.2 µM (inactive) | 65.8 µM (inactive) | 30.8 µM (inactive) | 50.8 | > 100 µM (inactive) | 41.1 µM (inactive) | 89.1 µM (inactive)
Nc1nc2c(ncn2Cc2ccccc2CO)c(=O)[nH]1 | > 100 µM (inactive) | > 100 µM (inactive) | > 100 µM (inactive) | > 100 µM (inactive) | > 100 µM (inactive) | > 100 µM (inactive) | > 100 µM (inactive) | > 100 µM (inactive) | > 100 µM (inactive) | > 100 µM (inactive) | > 100 µM (inactive) | > 100 µM (inactive) | > 100 µM (inactive) | > 100 µM (inactive) | > 100 µM (inactive) | > 100 µM (inactive) | > 100 | > 100 µM (inactive) | > 100 µM (inactive) | > 100 µM (inactive)
CC(C)(C)OC(=O)NCC(=O)NC1CC=CCC1NC(=O)CNC(=O)OC(C)(C)C (stereo not given) | > 100 µM (inactive) | > 100 µM (inactive) | > 100 µM (inactive) | > 100 µM (inactive) | > 100 µM (inactive) | > 100 µM (inactive) | > 100 µM (inactive) | > 100 µM (inactive) | > 100 µM (inactive) | > 100 µM (inactive) | > 100 µM (inactive) | > 100 µM (inactive) | > 100 µM (inactive) | > 100 µM (inactive) | > 100 µM (inactive) | > 100 µM (inactive) | > 100 | > 100 µM (inactive) | > 100 µM (inactive) | > 100 µM (inactive)
CN(C)CCCN1c2ccccc2Sc2cnccc21 | 58.6 µM (inactive) | 32.1 µM (inactive) | 65.2 µM (inactive) | 47 µM (inactive) | > 100 µM (inactive) | > 100 µM (inactive) | 41.6 µM (inactive) | 34.2 µM (inactive) | 68.5 µM (inactive) | 74.1 µM (inactive) | 35.1 µM (inactive) | 77.1 µM (inactive) | 74 µM (inactive) | 79.1 µM (inactive) | > 100 µM (inactive) | 93.5 µM (inactive) | > 100 | > 100 µM (inactive) | 61 µM (inactive) | > 100 µM (inactive)
Cc1ccc(S(=O)(=O)NC(=O)NC(CC(=O)O)C(=O)O)cc1 (stereo not given) | > 100 µM (inactive) | > 100 µM (inactive) | > 100 µM (inactive) | > 100 µM (inactive) | > 100 µM (inactive) | > 100 µM (inactive) | > 100 µM (inactive) | > 100 µM (inactive) | > 100 µM (inactive) | > 100 µM (inactive) | > 100 µM (inactive) | > 100 µM (inactive) | > 100 µM (inactive) | > 100 µM (inactive) | > 100 µM (inactive) | > 100 µM (inactive) | > 100 | > 100 µM (inactive) | > 100 µM (inactive) | > 100 µM (inactive)
C[C@@H](C[C@@H](O)[C@H](O)C(C)(C)O)[C@H]1CC=C2[C@]3(C)[C@H](O)C[C@H]4C(C)(C)[C@H](O)CC[C@]4(C)[C@H]3CC[C@@]21C | 13.4 µM (inactive) | 15.8 µM (inactive) | 15.8 µM (inactive) | 13.7 µM (inactive) | 16.7 µM (inactive) | 13.8 µM (inactive) | 15 µM (inactive) | 21.9 µM (inactive) | 15.7 µM (inactive) | 15.7 µM (inactive) | 15 µM (inactive) | 15 µM (inactive) | 14.2 µM (inactive) | 13.9 µM (inactive) | 16 µM (inactive) | 18 µM (inactive) | 14.7 | 16.9 µM (inactive) | 17.2 µM (inactive) | 14.3 µM (inactive)
Cc1ccc2c(ccc3[nH]cc(CNc4ccc(NS(C)(=O)=O)cc4)c32)n1 | 28.3 µM (inactive) | 18.9 µM (inactive) | 20.6 µM (inactive) | 29 µM (inactive) | 25.9 µM (inactive) | 81.7 µM (inactive) | 24.2 µM (inactive) | 21.8 µM (inactive) | 18.7 µM (inactive) | 27.2 µM (inactive) | 21.8 µM (inactive) | 17.8 µM (inactive) | 27.4 µM (inactive) | 19.1 µM (inactive) | 36.4 µM (inactive) | 23.6 µM (inactive) | 38.5 | 18.7 µM (inactive) | 19.3 µM (inactive) | 25 µM (inactive)
